According to the supplement of paper PMC10307832:

Legend:
Experiment in all cases: relative viability (nuclei count vs DMSO), 5 days (fraction); higher = more cells survive
Zebularine + Trametinib = compound: O=c1ncccn1[C@@H]1O[C@H](CO)[C@@H](O)[C@H]1O [Zebularine] + CC(=O)Nc1cccc(-n2c(=O)n(C3CC3)c(=O)c3c(Nc4ccc(I)cc4F)n(C)c(=O)c(C)c32)c1 [Trametinib] (partner 0.02 µM)
Summary of the method: (§1)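 Lung cancer cell lines, seeded in 1536-well plates, were treated the following day by pin tool with a single drug or with five library-drug doses (not always all listed) in √10 steps on top of a fixed anchor-drug dose. Cells were fixed and nuclei stained in one step after 5 days, and nuclei were counted. Relative viability is the nuclei count for treated wells divided by that for vehicle wells, reported as medians of duplicate plates.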

Zebularine + Foretinib = compound: O=c1ncccn1[C@@H]1O[C@H](CO)[C@@H](O)[C@H]1O [Zebularine] + COc1cc2c(Oc3ccc(NC(=O)C4(C(=O)Nc5ccc(F)cc5)CC4)cc3F)ccnc2cc1OCCCN1CCOCC1 [Foretinib] (partner 0.25 µM)
Summary of the method: as §1

Zebularine + Pictilisib = compound: O=c1ncccn1[C@@H]1O[C@H](CO)[C@@H](O)[C@H]1O [Zebularine] + CS(=O)(=O)N1CCN(Cc2cc3nc(-c4cccc5[nH]ncc45)nc(N4CCOCC4)c3s2)CC1 [Pictilisib] (partner 1 µM)
Summary of the method: as §1

BI-D1870 + Dasatinib = compound: CC(C)CCN1c2nc(Nc3cc(F)c(O)c(F)c3)ncc2N(C)C(=O)C1C [BI-D1870] + Cc1nc(Nc2ncc(C(=O)Nc3c(C)cccc3Cl)s2)cc(N2CCN(CCO)CC2)n1 [Dasatinib] (partner 0.075 µM)
Summary of the method: as §1

Cell Line	relative viability (Zebularine + Trametinib; first compound 1 µM)	relative viability (Zebularine + Trametinib; first compound 3.162 µM)	relative viability (Zebularine + Trametinib; first compound 10 µM)	relative viability (Zebularine + Trametinib; first compound 31.62 µM)	relative viability (Zebularine + Trametinib; first compound 100 µM)	relative viability (Zebularine + Foretinib; first compound 1 µM)	relative viability (Zebularine + Foretinib; first compound 3.162 µM)	relative viability (Zebularine + Foretinib; first compound 10 µM)	relative viability (Zebularine + Foretinib; first compound 31.62 µM)	relative viability (Zebularine + Foretinib; first compound 100 µM)	relative viability (Zebularine + Pictilisib; first compound 1 µM)	relative viability (Zebularine + Pictilisib; first compound 3.162 µM)	relative viability (Zebularine + Pictilisib; first compound 10 µM)	relative viability (Zebularine + Pictilisib; first compound 31.62 µM)	relative viability (Zebularine + Pictilisib; first compound 100 µM)	relative viability (BI-D1870 + Dasatinib; first compound 0.04 µM)	relative viability (BI-D1870 + Dasatinib; first compound 0.1265 µM)	relative viability (BI-D1870 + Dasatinib; first compound 0.4 µM)	relative viability (BI-D1870 + Dasatinib; first compound 1.265 µM)	relative viability (BI-D1870 + Dasatinib; first compound 4 µM)
NCI-H661	0.601	0.596	0.457	0.651	0.639	0.989	1.04	0.991	1.18	1.02	0.413	0.427	0.328	0.354	0.395	1.04	0.867	0.874	0.898	0.708
NCI-H1793	0.466	0.477	0.257	0.269	0.21	0.685	0.84		0.573	0.207	0.472	0.372	0.205	0.269	0.267	0.423	0.334	0.396	0.39	0.309
NCI-H1734	0.738	0.641	0.527	0.54	0.275	0.931	0.864	0.631	0.529	0.299	0.505	0.385	0.341	0.333	0.303	0.464	0.455	0.436	0.471	0.484
LXF-289	0.796	0.731	0.651	0.488	0.296	1.09	0.984	0.847	0.626	0.241	0.908	0.769	0.792	0.687	0.294	0.254	0.239	0.216	0.223	0.244
H3255	0.635	0.65		0.665	0.599	0.94	0.98	0.766	0.959	0.897	0.458	0.518		0.461	0.457	0.436	0.458	0.367	0.433	0.48
201T	0.793	0.767	0.647	0.741	0.719	1.16	1.14		0.973	0.32	0.729	0.743	0.709	0.671	0.703	0.59	0.569	0.571	0.548	0.544
NCI-H2126	0.532	0.561	0.476	0.557	0.437	1.44	1.09	0.97	1.06	0.883	0.544	0.434	0.535	0.495	0.43	0.575	0.6	0.55	0.548	0.483
